Measured values taken from patent US20250332173A1, “COMPOUNDS AND METHODS FOR MODULATING NUCLEIC ACID SPLICING” (REMIX THERAPEUTICS INC., priority 2021, published 2025).
Read-outs that look alike come from different tables or passages of the source.

How the values were obtained:
Target C [1] = test: RT-qPCR splicing assay panel, Target C canonical junction (CJ) mRNA; type: cell-based, human; conditions: Homo sapiens; Table 5 panel; canonical junction qPCR; compound concentration having 50% response in CJ decrease; read-out: Target C IC50 (decrease in CJ mRNA levels)
How it was run: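 A673 or K562 cells were treated for 24 h at 37 °C with compound in 11-point 3-fold dilution (top 10 uM final, DMSO ≤0.25%). Lysates then went to one-step RT-qPCR measuring canonical-junction mRNA, normalized to GAPDH, GUSB or PPIA.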

MYB = test: HiBiT protein abundance assay, MYB HiBiT K562 cell line; type: cell-based, human; conditions: 24 hours, top dose 10 μM
How it was run: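 K562 knock-in lines with endogenous HiBiT-tagged target, 10,000 cells/well in IMDM + FBS, treated 24 h at 37° C with 10-point 3-fold dilutions (top 10 μM final; DMSO ≤0.25%). Lytic Nano-Glo HiBiT luminescence normalized to untagged K562 baseline and DMSO controls; IC50 = concentration giving 50% abundance via four-parameter fit.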

[2] = test system: K562 (human chronic myelogenous leukemia) cells; test: Cell Titer Glo 2.0 cell viability assay; type: cell-based; conditions: Homo sapiens, K562, 72 h, K562 cells, 72 hours, Cell Titer Glo 2.0; read-out: K562 GI50
Target C [3] = test: HiBiT protein abundance assay, Target C HiBiT K562 cell line; type: cell-based; conditions: Homo sapiens; HiBiT lytic detection, modified K562 cells, 24 hours, top dose 10 μM; read-out: Effect on protein abundance, Target C (IC50)
Method: • Promega Nano-Glo HiBiT Lytic Detection System (cat #N3030) • Corning 384-well TC-treated microplates (cat #3570) • Synthego Engineered Cells Knock-In Clones
Cells were maintained in IMDM with 10% FBS. Before the assay, cells were diluted with […] growth media (IMDM+[…] media) and were seeded in a 384-well plate at a density of 10,000 cells/well (for each cell line listed in Table 5). Each compound was prepared as a 10-point 3-fold serial dilution in DMSO with the top dose at a final concentration of 10 μM in the well. Unmodified K562 cells were added at the previously specified density with DMSO to serve as an assay baseline and positive control (PC) and DMSO only with the respective modified cell lines was added to the negative control (NC) columns. Final DMSO concentration was kept at or below 0.25%. Treated cell plates were placed in an incubator at 37° C. with […] for 24 hours. After 24 hours, 25 μL of Complete HiBit Lytic reagent was added to each well at room temperature (e.g. one plate requiring 10 mL Lytic Buffer, 100 μL LgBiT Protein, 200 μL Lytic Substrate), shaken for 5 minutes at 600 RPM, then left to sit for 10 minutes for signal to stabilize before reading on a Spark Cyto plate reader (Tecan) with a 500 ms measurement time.
To determine compound effects on protein abundance of each target in Table 5, the percent response for each respective cell line was calculated at each compound concentration as follows:
For the normalized response at each concentration, a four-parameter logistical regression was fit to the data and the response was interpolated at the […] to determine a concentration for protein abundance at […] the untreated control.

[4] = HiBiT K562 cell line, read-out: Effect on protein abundance, MYB (IC50 category)
[5] = HiBiT lytic detection, modified K562 cells, read-out: Effect on protein abundance, MYB (IC50)

IC50 (Target C [1])	IC50 (MYB; [4])	GI50 [2]	IC50 (MYB; [5])	IC50 (Target C [3])	SMILES
> 10 µM	1 to 10 µM	1 to 10 µM	–	–	CNc1cc(-c2cc(C)c3nc(C)cn3n2)cc2ccn([C@@H]3CCNC3)c(=O)c12 [Compound 648, 6-(2,8-dimethylimidazo[1,2-b]pyridazin-6-yl)-8-(methylamino)-2-[(3R)-pyrrolidin-3-yl]isoquinolin-1-one]
> 10 µM	1 to 10 µM	1 to 10 µM	–	–	CC(=O)Nc1cc(-c2cc(C)c3nc(C)cn3n2)cc2ccn([C@H]3CCNC3)c(=O)c12 [Compound 649, N-[6-(2,8-dimethylimidazo[1,2-b]pyridazin-6-yl)-1-oxo-2-[(3S)-pyrrolidin-3-yl]-8-isoquinolyl]acetamide]
> 10 µM	> 10 µM	1 to 10 µM	–	–	CC(=O)Nc1cc(-c2cc(C)c3nc(C)cn3n2)cc2ccn([C@@H]3CCNC3)c(=O)c12 [Compound 650, N-[6-(2,8-dimethylimidazo[1,2-b]pyridazin-6-yl)-1-oxo-2-[(3R)-pyrrolidin-3-yl]-8-isoquinolyl]acetamide]
0.1 to 1 µM	< 0.1 µM	< 0.1 µM	–	–	Cc1cn2cc(-c3cc(F)c4c(=O)n(C5CC(C)NC(C)C5)ccc4c3)cc(F)c2n1 (stereo not drawn) [Compound 651]
> 10 µM	1 to 10 µM	1 to 10 µM	–	–	Cc1cn2cc(-c3cc(F)c4c(=O)n([C@H]5CNC[C@H]5C)ccc4c3)cc(F)c2n1 [Compound 652, 8-fluoro-6-(8-fluoro-2-methyl-imidazo[1,2-a]pyridin-6-yl)-2-[(3R,4R)-4-methylpyrrolidin-3-yl]isoquinolin-1-one]
> 10 µM	1 to 10 µM	> 10 µM	–	–	Cc1cn2cc(-c3cc(F)c4c(=O)n([C@@H]5CNC[C@@H]5C)ccc4c3)cc(F)c2n1 [Compound 653, 8-fluoro-6-(8-fluoro-2-methyl-imidazo[1,2-a]pyridin-6-yl)-2-[(3S,4S)-4-methylpyrrolidin-3-yl]isoquinolin-1-one]
0.1 to 1 µM	< 0.1 µM	< 0.1 µM	–	–	Cn1cc2cc(-c3ncc4c(=O)n(C5CCNCC5)ccc4n3)c(O)c(F)c2n1 [Compound 1123]
1 to 10 µM	–	0.1 to 1 µM	0.1 to 1 µM	1 to 10 µM	CNC1CCN(c2ccc3cc(-c4cc(C)c5nc(C)cn5n4)ccn3c2=O)C1 (stereo not drawn) [Compound 1158]
< 0.1 µM	–	< 0.1 µM	< 0.1 µM	< 0.1 µM	Cc1cn2nc(-c3ccn4c(=O)c(C5CCNCC5)ccc4c3)cc(C)c2n1 [Compound 1181]

SMILES	IC50 (Target C [1])	IC50 (MYB; [4])	GI50 [2]	IC50 (MYB; [5])	IC50 (Target C [3])
Cc1cn2nc(-c3ccn4c(=O)c(C5=CCNCC5)ncc4c3)cc(C)c2n1 [Compound 1182]	0.1 to 1 µM	–	0.1 to 1 µM	0.1 to 1 µM	0.1 to 1 µM
